Measurements: ChEMBL document CHEMBL1649449, “Antifungal activities of natural and synthetic iron chelators alone and in combination with azole and polyene antibiotics against Aspergillus fumigatus” (Antimicrob Agents Chemother, 2009)

System: Aspergillus fumigatus
Assay: Antifungal activity against Aspergillus fumigatus B5233 conidia after 16 hrs by fluorescence-based microplate assay at pH 7.2
Format: functional, organism-based
Settings: B5233, 16 h

Cc1cc(C2CCCCC2)n(O)c(=O)c1 [CICLOPIROX]
IC50: 4220 nM

Cc1c(O)c(=O)ccn1C [DEFERIPRONE]
IC50: 1290 nM
